Measured values taken from US12590134B2, “GLP-1 agonist polypeptide compound and salt thereof, synthesis method therefor and use thereof” (Sinopep-Allsino Biopharmaceutical Co., Ltd., priority 2020, dated 2026).

Columns and labels:
db/db mice = assay: Glucose lowering experiment, random blood glucose of db/db mice after single subcutaneous injection; format: in vivo
Procedure: (§1) After DB/DB mice with high blood glucose were acclimated for 5-7 days, a non-fasting random blood glucose level was determined; after fasting for 12 h, a fasting blood glucose level was determined by a rapid blood glucose meter. […] Mice in each test drug group and each control group received single subcutaneous injection of each test drug or a control solution respectively, and the mice in the model control group received single subcutaneous injection of PBS buffer solution; and the experiment grouping and dosage setting conditions were shown in Table 1:
Blood glucose level: the blood was taken from the tail tip of the mice to measure the blood glucose level with a fast blood glucose meter and blood glucose test strips. […]
The glucose lowering effect of the test article was evaluated by BG (mmol/L) or AUC (mmol/L·min).
(§2) T test was used for comparison between two groups. One-way ANOVA was used for comparison among three or more groups. If there was a significant difference in F value, multiple comparisons should be performed after ANOVA analysis. All data analyses were performed with SPSS 17.0. If p<0.05, it was considered a significant difference.

[1] = Effect on random body weight of db/db mice after single subcutaneous injection; format: in vivo; design: unit not given here
Procedure: as §1
Body weight: after grouping the animals, the body weight was measured once a day at a fixed time period
as §2

## Semaglutide
db/db mice; 30 nmol/kg SC group, baseline at grouping before administration, X ± s, n = 8
  Random blood glucose: 25.8 ± 3.9 mmol/L
db/db mice; 30 nmol/kg SC single dose, 0 h
  Blood glucose at different time after administration, 0 h: 26.8 ± 3.2 mmol/L
db/db mice; 30 nmol/kg SC single dose, 2 h
  Blood glucose at different time after administration, 2 h: 14.9 ± 4.1 mmol/L
db/db mice; 30 nmol/kg SC single dose, 4 h
  Blood glucose at different time after administration, 4 h: 13.2 ± 3.2 mmol/L
db/db mice; 30 nmol/kg SC single dose, 6 h
  Blood glucose at different time after administration, 6 h: 13.3 ± 3.7 mmol/L
db/db mice; 30 nmol/kg SC single dose, 10 h
  Blood glucose at different time after administration, 10 h: 11.5 ± 3.7 mmol/L
db/db mice; 30 nmol/kg SC single dose, 24 h
  Blood glucose at different time after administration, 24 h: 12.6 ± 5.6 mmol/L
db/db mice; 30 nmol/kg SC single dose, 36 h
  Blood glucose at different time after administration, 36 h: 21.1 ± 4.1 mmol/L
db/db mice; 30 nmol/kg SC single dose, 48 h
  Blood glucose at different time after administration, 48 h: 21.3 ± 5.6 mmol/L
db/db mice; 30 nmol/kg SC single dose, 56 h
  Blood glucose at different time after administration, 56 h: 28.3 ± 4.8 mmol/L
db/db mice; 30 nmol/kg SC single dose, 72 h
  Blood glucose at different time after administration, 72 h: 32.3 ± 1.9 mmol/L
[1]; 30 nmol/kg SC single dose, Day 0
  Random body weight at different time after administration, Day 0: 41.62 ± 1.56
[1]; 30 nmol/kg SC single dose, Day 1
  Random body weight at different time after administration, Day 1: 38.86 ± 1.37
[1]; 30 nmol/kg SC single dose, Day 2
  Random body weight at different time after administration, Day 2: 40.56 ± 1.51
[1]; 30 nmol/kg SC single dose, Day 3
  Random body weight at different time after administration, Day 3: 41.03 ± 1.72
[1]; 30 nmol/kg group, Day −1 (before administration)
  Random body weight at different time after administration, Day −1: 40.24 ± 1.44
[1]; 30 nmol/kg group, Day −2 (before administration), X ± s, n = 8
  Random body weight at different time after administration, Day −2: 41.37 ± 1.64
